Results as given in patent US20240376109A1, “PYRAZOLO[1,5-A]PYRIMIDINE COMPOUND FOR THE TREATMENT OF DERMAL DISORDERS” (OTSUKA PHARMACEUTICAL CO., LTD., priority 2021, published 2024).

Columns and labels:
PAR2 = biological target: T1, PAR2 (Homo sapiens, UniProt P55085); assay: Intracellular calcium concentration measurement (SLIGKV-NH2-induced calcium change, Fluo-8, FDSS/μCELL); format: cell-based; settings: HEK293 cells; SLIGKV-NH2 10 μM-induced intracellular calcium change; read-out: IC50
T1 construct: HEK293 cell lines derived from human embryonic kidney cultured in a MEM culture medium; endogenous in cells; host or cells: HEK293
T1 sequence (P55085 26-397): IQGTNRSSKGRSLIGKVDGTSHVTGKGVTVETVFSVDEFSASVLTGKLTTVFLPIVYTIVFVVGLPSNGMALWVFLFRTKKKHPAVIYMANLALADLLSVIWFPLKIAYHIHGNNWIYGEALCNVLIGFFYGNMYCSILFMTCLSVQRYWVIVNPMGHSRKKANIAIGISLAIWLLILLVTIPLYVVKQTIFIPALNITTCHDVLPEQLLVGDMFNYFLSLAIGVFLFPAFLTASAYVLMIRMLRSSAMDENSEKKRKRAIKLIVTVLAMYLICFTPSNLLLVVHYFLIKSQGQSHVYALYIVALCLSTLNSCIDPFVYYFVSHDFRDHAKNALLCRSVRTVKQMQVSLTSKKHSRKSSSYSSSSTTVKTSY

ICR mice = assay: Scratching behavior test with PAR2 agonist peptide (SLIGRL-NH2) administration; format: in vivo, mouse; settings: 40 μL of 6% test compound solution applied to back, SLIGRL-NH2 intradermal, scratching counted 10 to 40 minutes after
Method: Test Example 2: Scratching Behavior Test with PAR2 Agonist Peptide Administration
Magnets for measuring scratching behavior(Neuroscience, Inc.) were implanted in both legs of 6- to 7-week-old female ICR mice under 3.5% isoflurane inhalation anesthesia.
Under isoflurane inhalation anesthesia, the upper back was shaved about 2×3 cm with a shaver and 40 μL of a 6% of test compound solution was applied with a micropipette. The animals were then kept in a dedicated cage for 1 hour. […] Then, under isoflurane inhalation anesthesia, 10 μL of a 25 mg/mL solution of PAR2 agonist peptide (SLIGRL-NH2) in distilled water was administered intradermally by using a needle attached to a Hamilton syringe. The animals were returned to the cage and the scratching frequency was measured by the device for 30 minutes from 10 to 40 minutes after the administration.
The inhibitory effect of the test compounds on scratching behavior was calculated as a percentage of the number of scratches in the solvent-applied and PAR2 agonist peptide-treated group, and is shown in Table 4 as a percentage.

NZW rabbits = assay: Rabbit skin cumulative irritation test (erythema and edema scores, 7 days); format: in vivo; set-up: key: sum of erythema (5-point scale) + edema (5-point scale) scores; settings: 50 μL of 3% solution in 70% ethanol daily for 7 days; for Irritant score Day 7: average total score of erythema and edema on Day 7; for Irritant score Maximum: maximum (total) score of erythema and edema during the test period
Method: Test Example 4: Rabbit Skin Cumulative Irritation Test
18-20 week-old female NZW rabbits shaved on the back with a shaver were fitted with a collar (Natsume Seisakusho Co., Ltd.). A 2.5 cm×2.5 cm frame was placed on the back of the rabbits, and 50 μL of a 3% solution of each compound in 70% ethanol was applied to the place in 2 or 3 rabbits. The next day (approximately 24 hours later), the compound applied on the previous day was wiped off with a cotton pad soaked in lukewarm water, and approximately 30 minutes later, erythema (5-point scale) and edema (5-point scale) were evaluated according to the score criteria shown below.
After the score evaluation, the compound was applied again. This process was conducted for 7 days, and irritancy was evaluated by the average of the total score of erythema and edema on the last day of evaluation (Day 7) and the maximum (total) scores during the test period.
The score evaluation criteria were as follows.

NC/Nga mice = assay: Scratching behavior test using atopic dermatitis model (SDS and mite antigen ointment sensitization); settings: 60 μL applied, 7 hours after application
[1] = assessed concentration 6%, solvent 100% ethanol
[2] = assessed concentration 1%, solvent 100% ethanol

Compound | IC50 (PAR2) [nM] | scratching-behavior inhibition rate (ICR mice; solvent 100% ethanol) [%] | further results
CC1(C)CCN(C(=O)c2cc3nc(CC4CCCC4)cc(C(F)(F)F)n3n2)C(C)(C)C1=O [Example 105] | 83 | 27 | 
CC(C)c1cc(CCC2CCCC2)nc2cc(C(=O)N3CCCCCC3)nn12 [Example 14] | 186 |  | Irritant score Day 7 (NZW rabbits): 2.0; Irritant score Maximum (NZW rabbits): 2.0; Scratching behavior inhibition rate (NC/Nga mice; [1]): 95%
CC(C)c1cc(C2CCCCC2)nc2cc(C(=O)N3CCCCC3(C)C)nn12 [Example 32] | 118 | 41 | 
CCc1cc(CC2CCCC2)nc2cc(C(=O)N3CCCCC3(C)C)nn12 [Example 11] | 252 |  | Scratching behavior inhibition rate (NC/Nga mice; [1]): 80%
CC1(C)CCCCN1C(=O)c1cc2nc(C3CCCCC3)cc(C(F)(F)F)n2n1 [Example 65] | 107 | 27 | 
CCCc1cc(CC2CCCC2)nc2cc(C(=O)N3CCCCCC3)nn12 [Example 16] | 259 | 47 | 
CC(C)c1cc(CC2CCCC2)nc2cc(C(=O)N3CCCCC3(C)C)nn12 [Example 12] | 76 | 51 | Irritant score Day 7 (NZW rabbits): 0.0; Irritant score Maximum (NZW rabbits): 0.0; Scratching behavior inhibition rate (NC/Nga mice; [1]): 102%
CC(C)c1cc(CCC2CCCCC2)nc2cc(C(=O)N3CCCCCC3)nn12 [Example 17] | 232 |  | Irritant score Day 7 (NZW rabbits): 0.7; Irritant score Maximum (NZW rabbits): 1.3; Scratching behavior inhibition rate (NC/Nga mice; [1]): 60%
CC(C)c1cc(CC2CCCC2)nc2cc(C(=O)N3CCCC(O)C3(C)C)nn12 (centres unmarked) [Example 117] | 169 | 34 | 
CC(C)c1cc(CC2CCCC2)nc2cc(C(=O)N3CCSCC3(C)C)nn12 [Example 18] | 36 | 39 | 
CCC(CC)c1cc(CC2CCCC2)nc2cc(C(=O)N3CCCCC3(C)C)nn12 [Example 13] | 69 | 37 | 
CC1(C)CNCCCN1C(=O)c1cc2nc(C34CC5CC(CC(C5)C3)C4)cc(C(F)(F)F)n2n1 [Example 110] | 228 |  | scratching-behavior inhibition rate (ICR mice; solvent Acetone/methanol (1:1)): 25%
O=C(c1cc2nc(CC3CCCCC3)cc(C3CCCCC3)n2n1)N1CCCCCC1 [Example 8, azepan-1-yl(7-cyclohexyl-5-(cyclohexylmethyl)pyrazolo[1,5-a]pyrimidin-2-yl)methanone] | 95 | 30 | Scratching behavior inhibition rate (NC/Nga mice; [1]): 50%
O=C(c1cc2nc(CCC3CCCC3)cc(C(F)(F)F)n2n1)N1CCCCCC1 [Example 6, azepan-1-yl(5-(2-cyclopentylethyl)-7-(trifluoromethyl)pyrazolo[1,5-a]pyrimidin-2-yl)methanone] | 149 |  | Scratching behavior inhibition rate (NC/Nga mice; [1]): 60%
CC(C)c1cc(C23CC4CC(CC(C4)C2)C3)nc2cc(C(=O)N3CCCCC3(C)C)nn12 [Example 2] | 31 | 46 | 
CCC(CC)c1cc(CC2CCCCC2)nc2cc(C(=O)N3CCCCCC3)nn12 [Example 37] | 88 | 30 | 
O=C(c1cc2nc(C3CCCCC3)cc(C(F)(F)F)n2n1)N1CCCCCC1 [Example 54] | 355 |  | scratching-behavior inhibition rate (ICR mice; solvent Acetone/methanol (1:1)): 25%
O=C(c1cc2nc(C3CCCC3)cc(C(F)(F)F)n2n1)N1CCCCCC1 [Example 55] | 569 |  | scratching-behavior inhibition rate (ICR mice; solvent Acetone/methanol (1:1)): 47%; Scratching behavior inhibition rate (NC/Nga mice; assessed concentration 6%, solvent Acetone/methanol (1:1)): 54%
CCC(CC)c1cc(CC2CCCC2)nc2cc(C(=O)N3CCC(C)(C)C(=O)C3(C)C)nn12 [Example 70] | 51 | 33 | 
CC(C)c1cc(C23CC4CC(CC(C4)C2)C3)nc2cc(C(=O)N3CCNCC3(C)C)nn12 [Example 59] | 357 |  | scratching-behavior inhibition rate (ICR mice; solvent Acetone/methanol (1:1)): 28%
CC1(C)CNCCN1C(=O)c1cc2nc(C34CC5CC(CC(C5)C3)C4)cc(C(F)(F)F)n2n1 [Example 53, [5-(1-adamantyl)-7-(trifluoromethyl)pyrazolo[1,5-a]pyrimidin-2-yl]-(2,2-dimethylpiperazin-1-yl)methanone] | 404 |  | scratching-behavior inhibition rate (ICR mice; solvent Acetone/methanol (1:1)): 44%
CC1(C)CC(O)CCN1C(=O)c1cc2nc(CC3CCCCC3)cc(C(F)(F)F)n2n1 (centres unmarked) [Example 5] | 130 | 36 | 

Compound | IC50 (PAR2) [nM] | scratching-behavior inhibition rate (ICR mice; solvent 100% ethanol) [%] | further results
CCCCc1cc(CC2CCCCC2)nc2cc(C(=O)N3CCCCCC3)nn12 [Example 10] | 178 | 41 | Scratching behavior inhibition rate (NC/Nga mice; [2]): 48%
CC(C)c1cc(CC2CCC(C(F)(F)F)CC2)nc2cc(C(=O)N3CCCCCC3)nn12 (centres unmarked) [Example 156] | 103 |  | 
CC(C)c1cc(C2CCCCC2)nc2cc(C(=O)N3CCCCCC3)nn12 [Example 34] | 265 |  | 
CC(C)c1cc(CC2CCCCC2)nc2cc(C(=O)N3CCOCC3(C)C)nn12 [Example 76] | 121 |  | 
CCCc1cc(CC2CCCCC2)nc2cc(C(=O)N3CCCCCC3)nn12 [Example 9, azepan-1-yl(5-(cyclohexylmethyl)-7-propylpyrazolo[1,5-a]pyrimidin-2-yl)methanone] | 74 |  | 
C=C1CCCN(C(=O)c2cc3nc(CC4CCCC4)cc(C(C)C)n3n2)C1(C)C [Example 129] | 208 |  | 
CC1(C)CSCCN1C(=O)c1cc2nc(C3CCCC3)cc(C(F)(F)F)n2n1 [Example 67] | 174 |  | 
CCc1cc(CC2CCCCC2)nc2cc(C(=O)N3CCCCCC3)nn12 [Example 19] | 131 | 42 | Scratching behavior inhibition rate (NC/Nga mice; [2]): 70%
CC(C)c1cc(CC2CCCC2)nc2cc(C(=O)N3CCC=CCC3)nn12 [Example 80] | 250 |  | 
CC(C)c1cc(CC2CCCC2)nc2cc(C(=O)N3CCC(C)(C)C(=O)C3(C)C)nn12 [Example 71] | 115 | 27 | 
CC(F)(F)c1cc(CC2CCCCC2)nc2cc(C(=O)N3CCCCCC3)nn12 [Example 77] | 273 |  | 
O=C(c1cc2nc(C34CC5CC(CC(C5)C3)C4)cc(C(F)(F)F)n2n1)N1CCCCCC1 [Example 94] | 141 |  | scratching-behavior inhibition rate (ICR mice; solvent Acetone/methanol (1:1)): 44%
CC1(C)C(O)CCCN1C(=O)c1cc2nc(C3CCCCC3)cc(C(F)(F)F)n2n1 (centres unmarked) [Example 111] | 250 |  | 
COC1CCN(C(=O)c2cc3nc(C45CC6CC(CC(C6)C4)C5)cc(C(F)(F)F)n3n2)C(C)(C)C1 (centres unmarked) [Example 63] | 12 |  | 
CC(C)(C)c1cc(CC2CCCC2)nc2cc(C(=O)N3CCCCCCC3)nn12 [Example 150] | 180 |  | 
O=C(c1cc2nc(C3CCC(F)(F)CC3)cc(C(F)(F)F)n2n1)N1CCCCCC1 [Example 56] | 283 |  | 
CC(C)Cc1cc(CC2CCCCC2)nc2cc(C(=O)N3CCCCCC3)nn12 [Example 40] | 184 |  | 
CCCc1cc(C23CC4CC(CC(C4)C2)C3)nc2cc(C(=O)N3CCCCCC3)nn12 [Example 1] | 173 | 35 | Scratching behavior inhibition rate (NC/Nga mice; [1]): 76%
O=C(c1cc2nc(CC3CCCCC3)cc(C3CC3)n2n1)N1CCCCCC1 [Example 36] | 369 |  | 
O=C(c1cc2nc(CC3CCCC3)cc(C(F)(F)F)n2n1)N1CCCCCCCC1 [Example 41] | 246 |  | 
O=C(c1cc2nc(CC3CCCC3)cc(C(F)(F)F)n2n1)N1CCCCCC1 [Example 4, azepan-1-yl(5-(cyclopentylmethyl)-7-(trifluoromethyl)pyrazolo[1,5-a]pyrimidin-2-yl)methanone] | 109 |  | Scratching behavior inhibition rate (NC/Nga mice; assessed concentration 6%, solvent 70% ethanol): 56%
